Assay: mn = molality of the nth substance listed, in mol/kg
Details: 101 kPa, Liquid; for speed of sound: Pulse-echo method

[Co+2].[O-][Cl+3]([O-])([O-])[O-].[O-][Cl+3]([O-])([O-])[O-] [cobalt(II) perchlorate] + CC#N
Details	mass density, 288.13 K [kg/m3]	mass density, 293.15 K [kg/m3]	mass density, 298.15 K [kg/m3]	mass density, 303.15 K [kg/m3]	mass density, 308.15 K [kg/m3]	mass density, 313.15 K [kg/m3]	mass density, 323.15 K [kg/m3]	speed of sound, 298.15 K [m/s]
m1 = 0.0631	799.771	794.418	789.05	783.653	778.228	772.771	761.76	–
m1 = 0.06311	–	–	–	–	–	–	–	1282.4
m1 = 0.1115	809.436	804.1	798.743	793.363	787.958	782.523	771.558	1285.1
m1 = 0.1477	816.764	811.44	806.094	800.726	795.334	789.913	778.975	1287
m1 = 0.1815	823.65	818.333	812.996	807.639	802.256	796.848	785.942	1289
m1 = 0.2169	831.031	825.723	820.399	815.051	809.685	804.289	793.42	1290.7
m1 = 0.2496	837.824	832.525	827.21	821.873	816.516	811.134	800.293	1292.6
m1 = 0.2829	844.904	839.613	834.306	828.983	823.636	818.267	807.451	1294.5
m1 = 0.3172	852.306	847.023	841.727	836.41	831.074	825.719	814.932	1296.4
m1 = 0.3491	859.24	853.965	848.675	843.372	838.048	832.702	821.94	1298.2

CC#N [acetonitrile] + [Ni+2].[O-][Cl+3]([O-])([O-])[O-].[O-][Cl+3]([O-])([O-])[O-]
m2 = 0
Details	mass density [kg/m3]
288.13 K	787.307
293.15 K	781.93
298.15 K	776.53
303.15 K	771.101
308.15 K	765.645
313.15 K	760.155
323.15 K	749.068

[O-][Cl+3]([O-])([O-])[O-].[O-][Cl+3]([O-])([O-])[O-].[Zn+2] [zinc perchlorate] + CC#N
Details	mass density, 288.13 K [kg/m3]	mass density, 293.15 K [kg/m3]	mass density, 298.15 K [kg/m3]	mass density, 303.15 K [kg/m3]	mass density, 308.15 K [kg/m3]	mass density, 313.15 K [kg/m3]	mass density, 323.15 K [kg/m3]	speed of sound, 298.15 K [m/s]
m1 = 0.05169	797.728	792.369	786.992	781.587	776.154	770.69	759.656	1280.2
m1 = 0.09336	806.167	800.821	795.456	790.063	784.645	779.192	768.19	1281.9
m1 = 0.1233	812.307	806.971	801.611	796.227	790.815	785.374	774.39	1283.1
m1 = 0.1524	818.329	812.997	807.644	802.268	796.864	791.433	780.466	1284.2
m1 = 0.1817	824.45	819.125	813.78	808.412	803.019	797.595	786.657	1285.4
m1 = 0.2106	830.536	825.218	819.877	814.514	809.128	803.712	792.788	1286.8
m1 = 0.2379	836.415	831.101	825.768	820.412	815.033	809.624	798.715	1287.9
m1 = 0.2668	842.682	837.373	832.046	826.696	821.325	815.925	805.037	1289
m1 = 0.2944	848.641	843.338	838.017	832.675	827.308	821.916	811.045	1290.3

[Cu+2].[O-][Cl+3]([O-])([O-])[O-].[O-][Cl+3]([O-])([O-])[O-] [copper perchlorate] + CC#N
Details	mass density, 288.13 K [kg/m3]	mass density, 293.15 K [kg/m3]	mass density, 298.15 K [kg/m3]	mass density, 303.15 K [kg/m3]	mass density, 308.15 K [kg/m3]	mass density, 313.15 K [kg/m3]	mass density, 323.15 K [kg/m3]	speed of sound, 298.15 K [m/s]
m1 = 0.0572	798.765	793.409	788.03	782.624	777.19	771.728	760.698	–
m1 = 0.05724	–	–	–	–	–	–	–	1281.6
m1 = 0.1013	807.682	802.334	796.961	791.568	786.147	780.696	769.697	1284.3
m1 = 0.1335	814.263	808.919	803.556	798.17	792.754	787.314	776.342	1286.2
m1 = 0.1645	820.66	815.323	809.967	804.588	799.184	793.753	782.802	1288.2
m1 = 0.1975	827.568	822.238	816.887	811.516	806.117	800.692	789.754	1290
m1 = 0.2264	833.698	828.373	823.028	817.66	812.272	806.857	795.939	1291.8
m1 = 0.258	840.493	835.168	829.828	824.467	819.083	813.673	802.774	1293.7
m1 = 0.285	846.334	841.014	835.678	830.323	824.946	819.544	808.66	1295.4
m1 = 0.3172	853.453	848.137	842.806	837.456	832.084	826.687	815.817	1297.3

— the NIST ThermoML archive (doi:10.1021/je0496950)
